This test relates to mice. The test can be described thus: Inverted screen test in mice (Example 4). The note with it: for ED50: Mus musculus, ip, read-out: ED-50 (95% confidence limits); for potency relative to vanillin: early time points (up to 5 minutes), ethanol vehicle itself gives approximately 10% impairment. The format is in vivo. The protocol:
An inverted screen test was performed on mice to investigate the effect of vanillin and vanillin analogs on muscular function. After i.p. injection of vanillin or vehicle, each mouse was placed on a wire screen (12.8 cm×12.8 cm with a 6 mm mesh size) and the screen was inverted. A positive effect was found if the drug caused the mouse to fall from the screen within 60 seconds. A negative effect was found if the mouse had the ability to climb from the underside of the screen to the top side of the screen within the 60 second time period. Hanging from the underside of the screen without falling but without climbing to the topside at 60 seconds is recorded as a one-half positive effect per the convention of Coughenour, L. L.; Mclean, J. R.; Parker, R. B., "A New Device for the Rapid Measurement of Impaired Motor Function in Mice," Pharmacol. Biochem. Behav., 6: 351-353; 1977. The test was performed at 2, 5, 10, and 30 minutes following administration of vanillin or vehicle. At each of those times, an ED-50 (and 95% confidence limits) was determined for vanillin. Six mice were used in each experimental group.
Several analogs of vanillin were also examined in this test. The chemical structures and chemical names for these compounds are described hereinabove.
The testing of these compounds was limited both by supply of compound and by solubility. Testing was performed at 2, 5, 10, 20 minutes after administration of drug or vehicle. The vehicles used to solubilize the analogs were as follows: 10% ethanol for TBJ1, TBJ2, and TBJ3; 3% ammonium hydroxide solution in saline for FSA (pH=9); 6.7% ammonium hydroxide in saline for TB17 (pH=9.3); and 20% ethanol, 1% ammonium hydroxide solution in saline for TB34 (pH=10.0). ED-50s of compounds (and 95% confidence limits) were calculated in cases where the data permitted the calculation.

Results on six compounds are retold here after patent US5668182A, “Method of calming or sedating an animal with a hydroxy benzaldehyde compound” (priority 1996, dated 1997).

Where two headings read alike, the source gives them in different places.

Turning to `O=Cc1ccc(O)c(C(=O)O)c1` [FSA], for the setting “not included in Table 4”, the “effect on performance in inverted screen test” value is “failed to affect performance”.

With `COC(=O)c1ccc(O)c(OC)c1` [TBJ1], the “effect on performance in inverted screen test” value (200 mg/kg, 5 minutes) is given as 100%; the “effect on performance in inverted screen test” value (200 mg/kg, 20 minutes) is 75%; the “effect on performance in inverted screen test” value (doses lower than 200 mg/kg) was “did not produce significant effects”.

In the case of `O=Cc1ccc(OCc2ccccc2)c(C(=O)O)c1` [TB17], the “effect on performance in inverted screen test” value (not included in Table 4) is on record as “failed to affect performance”.

Regarding `O=Cc1ccc(OCc2ccc(C(=O)O)cc2)c(C(=O)O)c1` [TB34], the “effect on performance in inverted screen test” value (not included in Table 4) is reported as “mild or erratic effects”.

On to `COC(=O)c1ccc(OC)c(O)c1` [TBJ2], for which the “potency relative to vanillin” value is listed as “approximately equipotent to vanillin”. The ED50 (2 min, 2 min post-treatment) is around 100 mg/kg. In addition, where the note is “5 min, 5 min post-treatment”, the ED50 is above 100 mg/kg. For the same compound, the ED50 (10 min, 10 min post-treatment) came out at 132 mg/kg. The ED50 (20 min, at 20 min (printed in the 30 min line)) was around 140 mg/kg. Moreover, the “persistence of effect on performance” value (highest dose (200 mg/kg)) came out at 20 min. For the same compound, where the note is “mouse, in vivo”, the “potency and duration relative to vanillin” value is “approximately equipotent and as long or longer acting”.

As for `COC(=O)Cc1ccc(O)c(OC)c1` [TBJ3], the “potency relative to vanillin” value is listed as “approximately equipotent to vanillin”. Moreover, the “ED-50: activity in words” value (10 min post-treatment, inactive at 200 (mg/kg)) was “inactive”. The ED50 (5 min, 5 min post-treatment) came out at 99.7 mg/kg. For the setting “after injection”, the “time by which effect had essentially abated” value is at most 10 min.
